Measured values taken from PubChem BioAssay AID2060511 (Molecular Pharmacology Branch, DTP, NCI, 2025).

Test system: 422866-222-R5-J1-PDC spheroids with HUVEC/MSC, viability
Assay: Anticancer human tumor 422866-222-R5-J1-PDC patient-derived pancreatic adenocarcinoma cell line growth inhibition [GQUAD]
Details: for IC50: curve of first compound; for viability, T/C: stronger effect = lower value
How it was run: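 Viability of tumor cells grown as complex spheroids with endothelial and stromal cells, exposed to drug combinations. Top concentration at or near clinical Cmax (else 10 microM), diluted in half-log increments.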
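Note: spheroids exposed to compounds for seven days before reading.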
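Throughout, for viability, T/C: percent viability relative to DMSO vehicle control taken as 100%.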

CC(C)n1c(=O)n(C)c2cnc3cc(F)c(-c4ccc(OCCCN5CCCCC5)nc4)cc3c21 + Cc1[nH]c2ccc(F)cc2c1-c1nc2c3cccnc3c3ncccc3c2[nH]1
IC50 (second compound 0.0316 µM): > 10 µM | IC50 (second compound 0.1 µM): > 10 µM | IC50 (second compound 0.316 µM): > 10 µM | IC50 (second compound 1 µM): > 10 µM | IC50 (second compound 3.16 µM): > 10 µM | IC50 (second compound 10 µM): > 10 µM | viability, T/C (second compound 0.0316 µM, first compound 0.0316 µM): 86.9% | viability, T/C (second compound 0.0316 µM, first compound 0.1 µM): 99.4% | viability, T/C (second compound 0.0316 µM, first compound 0.316 µM): 94% | viability, T/C (second compound 0.0316 µM, first compound 1 µM): 91.1% | viability, T/C (second compound 0.0316 µM, first compound 3.16 µM): 89.2% | viability, T/C (second compound 0.0316 µM, first compound 10 µM): 52% | viability, T/C (second compound 0.1 µM, first compound 0.0316 µM): 99.4% | viability, T/C (second compound 0.1 µM, first compound 0.1 µM): 114% | viability, T/C (second compound 0.1 µM, first compound 0.316 µM): 112% | viability, T/C (second compound 0.1 µM, first compound 1 µM): 83.2% | viability, T/C (second compound 0.1 µM, first compound 3.16 µM): 113% | viability, T/C (second compound 0.1 µM, first compound 10 µM): 73.5% | viability, T/C (second compound 0.316 µM, first compound 0.0316 µM): 93.8% | viability, T/C (second compound 0.316 µM, first compound 0.1 µM): 90.6% | viability, T/C (second compound 0.316 µM, first compound 0.316 µM): 102% | viability, T/C (second compound 0.316 µM, first compound 1 µM): 92.1% | viability, T/C (second compound 0.316 µM, first compound 3.16 µM): 92.2% | viability, T/C (second compound 0.316 µM, first compound 10 µM): 68.5% | viability, T/C (second compound 1 µM, first compound 0.0316 µM): 95.4% | viability, T/C (second compound 1 µM, first compound 0.1 µM): 89.2% | viability, T/C (second compound 1 µM, first compound 0.316 µM): 91.3% | viability, T/C (second compound 1 µM, first compound 1 µM): 91.9% | viability, T/C (second compound 1 µM, first compound 3.16 µM): 117% | viability, T/C (second compound 1 µM, first compound 10 µM): 64.9% | viability, T/C (second compound 3.16 µM, first compound 0.0316 µM): 78.3% | viability, T/C (second compound 3.16 µM, first compound 0.1 µM): 88.2% | viability, T/C (second compound 3.16 µM, first compound 0.316 µM): 105% | viability, T/C (second compound 3.16 µM, first compound 1 µM): 94.7% | viability, T/C (second compound 3.16 µM, first compound 3.16 µM): 98% | viability, T/C (second compound 3.16 µM, first compound 10 µM): 63.9% | viability, T/C (second compound 10 µM, first compound 0.0316 µM): 73% | viability, T/C (second compound 10 µM, first compound 0.1 µM): 95.1% | viability, T/C (second compound 10 µM, first compound 0.316 µM): 91.7% | viability, T/C (second compound 10 µM, first compound 1 µM): 80.9% | viability, T/C (second compound 10 µM, first compound 3.16 µM): 85.2% | viability, T/C (second compound 10 µM, first compound 10 µM): 54.5%
